{"source": "patent US20070049564A1", "about": "(Wyeth, priority 2005, published 2007)", "key": {"S. epidermidis GC 4935": {"system": "S. epidermidis GC 4935", "assay": "MIC, broth microdilution", "details": "Staphylococcus epidermidis"}, "E. coli GC 2272": {"system": "E. coli GC 2272", "assay": "MIC, broth microdilution", "details": "Escherichia coli"}, "S. pneumoniae+ GC 4465": {"system": "S. pneumoniae+ GC 4465", "assay": "MIC, broth microdilution", "details": "Streptococcus pneumoniae"}, "Staph. aureus Smith": {"system": "Staph. aureus Smith", "assay": "In vivo activity (oral, iv; ED50) against Staph. aureus Smith in mice", "procedure": "Representative examples of compounds of Formula I were tested for the oral efficacy using S. aureus Smith in mice."}, "S. aureus GC 2216": {"system": "S. aureus GC 2216", "assay": "MIC, broth microdilution", "details": "Staphylococcus aureus"}, "S. pneumoniae* GC 4465": {"system": "S. pneumoniae* GC 4465", "assay": "MIC, broth microdilution", "details": "Streptococcus pneumoniae"}, "E. coli GC 2231": {"system": "E. coli GC 2231", "assay": "MIC, broth microdilution", "details": "Escherichia coli"}, "E. coli GC 2232": {"system": "E. coli GC 2232", "assay": "MIC, broth microdilution", "details": "Escherichia coli"}, "E. coli GC 6465": {"system": "E. coli GC 6465", "assay": "MIC, broth microdilution", "details": "Escherichia coli"}, "S. aureus GC 4536": {"system": "S. aureus GC 4536", "assay": "MIC, broth microdilution", "details": "Staphylococcus aureus"}, "E. coli GC 4560": {"system": "E. coli GC 4560", "assay": "MIC, broth microdilution", "details": "Escherichia coli"}, "E. faecalis GC 2267": {"system": "E. faecalis GC 2267", "assay": "MIC, broth microdilution", "details": "Enterococcus faecalis"}, "E. coli GC 2203": {"system": "E. coli GC 2203", "assay": "MIC, broth microdilution", "details": "Escherichia coli"}, "E. coli GC 2234": {"system": "E. coli GC 2234", "assay": "MIC, broth microdilution", "details": "Escherichia coli"}, "S. aureus GC 6466": {"system": "S. aureus GC 6466", "assay": "MIC, broth microdilution", "details": "Staphylococcus aureus"}, "E. faecalis GC 2242": {"system": "E. faecalis GC 2242", "assay": "MIC, broth microdilution", "details": "Enterococcus faecalis"}, "P. aeruginosa GC 2214": {"system": "P. aeruginosa GC 2214", "assay": "MIC, broth microdilution", "details": "Pseudomonas aeruginosa", "procedure": "(§1) Antimicrobial susceptibility testing. The in vitro activities of the antibiotics are determined by the broth microdilution method as recommended by the National Committee for Clinical Laboratory Standards (NCCLS) (1). Mueller-Hinton II broth (MHBII)(BBL Cockeysville, Md.) is the medium employed in the testing procedures. Microtiter plates containing serial dilutions of each antimicrobial agent are inoculated with each organism to yield the appropriate density (10^5 CFU/ml) in a 100 μl final volume. The plates are incubated for 18-22 hours at 35° C. in ambient air.\nRepresentative compounds were first incubated in mouse serum for an hour prior to the in vitro testing against a panel of selected gram-positive and gram-negative bacteria strains. All compounds were also pre-incubated in water for an hour prior to testing as control."}, "E. coli GC 4559": {"system": "E. coli GC 4559", "assay": "MIC, broth microdilution", "details": "Escherichia coli", "procedure": "as §1\nRepresentative compounds were first incubated in mouse serum for an hour prior to the in vitro testing against a panel of selected gram-positive and gram-negative bacteria strains. All compounds were also pre-incubated in water for an hour prior to testing as control. Representative compounds of Formula I were incubated in human serum prior to MIC determination."}, "S. aureus GC 1131": {"system": "S. aureus GC 1131", "assay": "MIC, broth microdilution", "details": "Staphylococcus aureus"}, "S. aureus GC 6467": {"system": "S. aureus GC 6467", "assay": "MIC, broth microdilution", "details": "Staphylococcus aureus"}, "[1]": {"details": "read-out: MINIMAL INHIBITORY CONCENTRATION MIC, pre-incubated in Mouse Serum"}, "[2]": {"details": "read-out: MINIMAL INHIBITORY CONCENTRATION MIC, pre-incubated in Water"}}, "note": "Like-named read-outs stand apart in the source and are kept apart here.", "data": [{"compound": "CCCCN(CC(=O)Nc1cc(N(C)C)c2c(c1O)C(=O)C1=C(O)[C@]3(O)C(=O)C(C(N)=O)=C(O)[C@@H](N(C)C)[C@@H]3C[C@@H]1C2)C(=O)OCOC(=O)c1cccs1", "note": "[Example 23, ({[(2-{[(5aR,6aS,7S,10aS)-9-(aminocarbonyl)-4,7-bis(dimethylamino)-1,8,10a,11-tetrahydroxy-10,12-dioxo-5,5a,6,6a,7,10,10a,12-octahydrotetracen-2-yl]amino}-2-oxoethyl)(butyl)amino]carbonyl}oxy)methyl thiophene-2-carboxylate]", "values": [{"measurement": "MIC", "setting": "S. epidermidis GC 4935; GC4935, read-out: MINIMAL INHIBITORY CONCENTRATION MIC, pre-incubated in Mouse Serum", "value": 2, "unit": "µg/mL"}, {"measurement": "MIC", "setting": "S. epidermidis GC 4935; GC4935, read-out: MINIMAL INHIBITORY CONCENTRATION MIC, pre-incubated in Water", "value": 4, "unit": "µg/mL"}, {"measurement": "MIC", "setting": "E. coli GC 2272; GC2272, read-out: MINIMAL INHIBITORY CONCENTRATION MIC, pre-incubated in Mouse Serum", "value": 1, "unit": "µg/mL"}, {"measurement": "MIC", "setting": "E. coli GC 2272; GC2272, read-out: MINIMAL INHIBITORY CONCENTRATION MIC, pre-incubated in Water", "value": "> 64", "unit": "µg/mL"}, {"measurement": "MIC", "setting": "S. pneumoniae+ GC 4465; [1]", "value": 4, "unit": "µg/mL"}, {"measurement": "MIC", "setting": "S. pneumoniae+ GC 4465; [2]", "value": 8, "unit": "µg/mL"}, {"measurement": "ED50", "setting": "Staph. aureus Smith; Staphylococcus aureus, in Mus musculus, po, read-out: ED50 Staph Smith SOD", "value": 19, "unit": "mg/kg"}, {"measurement": "ED50", "setting": "Staph. aureus Smith; iv, read-out: ED50 Staph Smith SIV", "value": 0.47, "unit": "mg/kg"}, {"measurement": "MIC", "setting": "S. aureus GC 2216; GC2216, read-out: MINIMAL INHIBITORY CONCENTRATION MIC, pre-incubated in Mouse Serum", "value": 1, "unit": "µg/mL"}, {"measurement": "MIC", "setting": "S. aureus GC 2216; GC2216, read-out: MINIMAL INHIBITORY CONCENTRATION MIC, pre-incubated in Water", "value": 4, "unit": "µg/mL"}, {"measurement": "MIC", "setting": "S. pneumoniae* GC 4465; [1]", "value": 0.12, "unit": "µg/mL"}, {"measurement": "MIC", "setting": "S. pneumoniae* GC 4465; [2]", "value": 0.12, "unit": "µg/mL"}, {"measurement": "MIC", "setting": "E. coli GC 2231; GC2231, read-out: MINIMAL INHIBITORY CONCENTRATION MIC, pre-incubated in Mouse Serum", "value": 2, "unit": "µg/mL"}, {"measurement": "MIC", "setting": "E. coli GC 2231; GC2231, read-out: MINIMAL INHIBITORY CONCENTRATION MIC, pre-incubated in Water", "value": "> 64", "unit": "µg/mL"}, {"measurement": "MIC", "setting": "E. coli GC 2232; GC2232, read-out: MINIMAL INHIBITORY CONCENTRATION MIC, pre-incubated in Mouse Serum", "value": 1, "unit": "µg/mL"}, {"measurement": "MIC", "setting": "E. coli GC 2232; GC2232, read-out: MINIMAL INHIBITORY CONCENTRATION MIC, pre-incubated in Water", "value": "> 64", "unit": "µg/mL"}, {"measurement": "MIC", "setting": "E. coli GC 6465; GC6465, read-out: MINIMAL INHIBITORY CONCENTRATION MIC, pre-incubated in Mouse Serum", "value": 4, "unit": "µg/mL"}, {"measurement": "MIC", "setting": "E. coli GC 6465; GC6465, read-out: MINIMAL INHIBITORY CONCENTRATION MIC, pre-incubated in Water", "value": "> 64", "unit": "µg/mL"}, {"measurement": "MIC", "setting": "S. aureus GC 4536; GC4536, read-out: MINIMAL INHIBITORY CONCENTRATION MIC, pre-incubated in Mouse Serum", "value": 1, "unit": "µg/mL"}, {"measurement": "MIC", "setting": "S. aureus GC 4536; GC4536, read-out: MINIMAL INHIBITORY CONCENTRATION MIC, pre-incubated in Water", "value": 2, "unit": "µg/mL"}, {"measurement": "MIC", "setting": "E. coli GC 4560; GC4560, read-out: MINIMAL INHIBITORY CONCENTRATION MIC, pre-incubated in Mouse Serum", "value": 0.5, "unit": "µg/mL"}, {"measurement": "MIC", "setting": "E. coli GC 4560; GC4560, read-out: MINIMAL INHIBITORY CONCENTRATION MIC, pre-incubated in Water", "value": 8, "unit": "µg/mL"}, {"measurement": "MIC", "setting": "E. faecalis GC 2267; GC2267, read-out: MINIMAL INHIBITORY CONCENTRATION MIC, pre-incubated in Mouse Serum", "value": 2, "unit": "µg/mL"}, {"measurement": "MIC", "setting": "E. faecalis GC 2267; GC2267, read-out: MINIMAL INHIBITORY CONCENTRATION MIC, pre-incubated in Water", "value": 8, "unit": "µg/mL"}, {"measurement": "MIC", "setting": "E. coli GC 2203; GC2203, read-out: MINIMAL INHIBITORY CONCENTRATION MIC, pre-incubated in Mouse Serum", "value": 1, "unit": "µg/mL"}, {"measurement": "MIC", "setting": "E. coli GC 2203; GC2203, read-out: MINIMAL INHIBITORY CONCENTRATION MIC, pre-incubated in Water", "value": "> 64", "unit": "µg/mL"}, {"measurement": "MIC", "setting": "E. coli GC 2234; GC2234, read-out: MINIMAL INHIBITORY CONCENTRATION MIC, pre-incubated in Mouse Serum", "value": 1, "unit": "µg/mL"}, {"measurement": "MIC", "setting": "E. coli GC 2234; GC2234, read-out: MINIMAL INHIBITORY CONCENTRATION MIC, pre-incubated in Water", "value": "> 64", "unit": "µg/mL"}, {"measurement": "MIC", "setting": "S. aureus GC 6466; GC6466, read-out: MINIMAL INHIBITORY CONCENTRATION MIC, pre-incubated in Mouse Serum", "value": 0.25, "unit": "µg/mL"}, {"measurement": "MIC", "setting": "S. aureus GC 6466; GC6466, read-out: MINIMAL INHIBITORY CONCENTRATION MIC, pre-incubated in Water", "value": 0.5, "unit": "µg/mL"}, {"measurement": "MIC", "setting": "E. faecalis GC 2242; GC2242, read-out: MINIMAL INHIBITORY CONCENTRATION MIC, pre-incubated in Mouse Serum", "value": 2, "unit": "µg/mL"}, {"measurement": "MIC", "setting": "E. faecalis GC 2242; GC2242, read-out: MINIMAL INHIBITORY CONCENTRATION MIC, pre-incubated in Water", "value": 4, "unit": "µg/mL"}, {"measurement": "MIC", "setting": "P. aeruginosa GC 2214; GC2214, read-out: MINIMAL INHIBITORY CONCENTRATION MIC, pre-incubated in Mouse Serum", "value": "> 64", "unit": "µg/mL"}, {"measurement": "MIC", "setting": "P. aeruginosa GC 2214; GC2214, read-out: MINIMAL INHIBITORY CONCENTRATION MIC, pre-incubated in Water", "value": "> 64", "unit": "µg/mL"}, {"measurement": "MIC", "setting": "E. coli GC 4559; GC4559, read-out: MINIMAL INHIBITORY CONCENTRATION MIC, pre-incubated in Mouse Serum", "value": 2, "unit": "µg/mL"}, {"measurement": "MIC", "setting": "E. coli GC 4559; GC4559, read-out: MINIMAL INHIBITORY CONCENTRATION MIC, pre-incubated in Water", "value": "> 64", "unit": "µg/mL"}, {"measurement": "MIC", "setting": "S. aureus GC 1131; GC1131, read-out: MINIMAL INHIBITORY CONCENTRATION MIC, pre-incubated in Mouse Serum", "value": 1, "unit": "µg/mL"}, {"measurement": "MIC", "setting": "S. aureus GC 1131; GC1131, read-out: MINIMAL INHIBITORY CONCENTRATION MIC, pre-incubated in Water", "value": 2, "unit": "µg/mL"}, {"measurement": "MIC", "setting": "S. aureus GC 6467; GC6467, read-out: MINIMAL INHIBITORY CONCENTRATION MIC, pre-incubated in Mouse Serum", "value": 4, "unit": "µg/mL"}, {"measurement": "MIC", "setting": "S. aureus GC 6467; GC6467, read-out: MINIMAL INHIBITORY CONCENTRATION MIC, pre-incubated in Water", "value": 8, "unit": "µg/mL"}]}]}
